Test results reported in patent publication US20160209428A1, “DIAGNOSTIC AND PREDICTIVE METABOLITE PATTERNS FOR DISORDERS AFFECTING THE BRAIN AND NERVOUS SYSTEM” (THE REGENTS OF THE UNIVERSITY OF CALIFORNIA, priority 2013, published 2016).

Columns and labels:
[1] = tested on: cerebral synaptosomal protein; assay: Western blot analysis of cerebral synaptosomal proteins, Fragile X model; type: in vivo, mouse; settings: Fmr1 KO mice
Description: Twenty μg of cerebral synaptosomal protein was loaded in SDS-polyacrylamide gels (Bis-Tris Gels) and transferred to PVDF membranes. The blots were first stained with Ponceau S, scanned, and the transfer efficiency was quantified by densitometry before blocking with 3% skim milk, and probing with primary and secondary antibodies for signal development by enhanced chemiluminescence (ECL).

[2] = mice, after a single dose; cited from earlier work
[3] = cerebral synaptosomes, suramin vs saline
[4] = cerebral synaptosomes, listed as suramin

## Cc1ccc(C(=O)Nc2ccc(S(=O)(=O)O)c3cc(S(=O)(=O)O)cc(S(=O)(=O)O)c23)cc1NC(=O)c1cccc(NC(=O)Nc2cccc(C(=O)Nc3cc(C(=O)Nc4ccc(S(=O)(=O)O)c5cc(S(=O)(=O)O)cc(S(=O)(=O)O)c45)ccc3C)c2)c1 [Suramin, suramin]
[1]; suramin vs saline
  proteins interrogated in cerebral synaptosomes that were changed: 17 of 54
[1]; cerebral synaptosomes
  Response to Suramin KO-Sur/KO-Sal: 7-dehydrocholesterol reductase/7DHCR: Up
  Response to Suramin KO-Sur/KO-Sal: APC: Down
  Response to Suramin KO-Sur/KO-Sal: Acetyl-CoA acetyltransferase 2/ACAT2: None
  Response to Suramin KO-Sur/KO-Sal: Akt: decreased and Down
  Response to Suramin KO-Sur/KO-Sal: Amyloid β (Aβ) precursor protein/APP: Down
  Response to Suramin KO-Sur/KO-Sal: C1qA: Down
  Response to Suramin KO-Sur/KO-Sal: CB1: Down
  Response to Suramin KO-Sur/KO-Sal: CB2: unchanged and None
  Response to Suramin KO-Sur/KO-Sal: CPY27A1: None
  Response to Suramin KO-Sur/KO-Sal: Dopamine Receptor D4/D4R: None
  Response to Suramin KO-Sur/KO-Sal: ETFQO/ETFDH: None
  Response to Suramin KO-Sur/KO-Sal: Fragile X mental retardation protein/FMRP: None
  Response to Suramin KO-Sur/KO-Sal: GABA A Receptor beta 3/GABA-β3: None
  Response to Suramin KO-Sur/KO-Sal: GluR1: Down
  Response to Suramin KO-Sur/KO-Sal: HMGCoA Reductase/HMOCoAR: None
  Response to Suramin KO-Sur/KO-Sal: IP3R I: Up
  Response to Suramin KO-Sur/KO-Sal: Indoleamine 2,3-dioxygenase 1/IDO-1: None
  Response to Suramin KO-Sur/KO-Sal: Metabotropic glutamate receptor 5/mGluR5: no effect and None
  Response to Suramin KO-Sur/KO-Sal: Methionine Sulfoxide Reductase A/MSRA: None
  Response to Suramin KO-Sur/KO-Sal: Nicotinic Acetylcholine Receptor alpha 7/nAchR7: None
  Response to Suramin KO-Sur/KO-Sal: Nitro Tyrosine: None
  Response to Suramin KO-Sur/KO-Sal: P2X1: None
  Response to Suramin KO-Sur/KO-Sal: P2X2: None
  Response to Suramin KO-Sur/KO-Sal: P2X3R: Down
  Response to Suramin KO-Sur/KO-Sal: P2X4: None
  Response to Suramin KO-Sur/KO-Sal: P2X5: None
  Response to Suramin KO-Sur/KO-Sal: P2X6: None
  Response to Suramin KO-Sur/KO-Sal: P2X7: None
  Response to Suramin KO-Sur/KO-Sal: P2Y1R: Up
  Response to Suramin KO-Sur/KO-Sal: P2Y2: None
  Response to Suramin KO-Sur/KO-Sal: P2Y4: None
  Response to Suramin KO-Sur/KO-Sal: PGC1a: None
  Response to Suramin KO-Sur/KO-Sal: PI3K: decreased and Down
  Response to Suramin KO-Sur/KO-Sal: PKC: None
  Response to Suramin KO-Sur/KO-Sal: PPAR beta/delta: Up
  Response to Suramin KO-Sur/KO-Sal: PPARa: no effect and None
  Response to Suramin KO-Sur/KO-Sal: Postsynaptic Density protein 95/PSD95: None
  Response to Suramin KO-Sur/KO-Sal: Steroidogenic acute regulatory protein/StAR: Up
  Response to Suramin KO-Sur/KO-Sal: TAR DNA-binding protein 43/TDP43: Down
  Response to Suramin KO-Sur/KO-Sal: TGFβ Receptor I: None
  Response to Suramin KO-Sur/KO-Sal: mTOR: not observed and None
  Response to Suramin KO-Sur/KO-Sal: nAchR beta2: None
  Response to Suramin KO-Sur/KO-Sal: p-eIF2α(Ser51): None
  Response to Suramin KO-Sur/KO-Sal: p-mTOR(ser2448): not observed and None
  Response to Suramin KO-Sur/KO-Sal: pAkt(Ser473): None
  Response to Suramin KO-Sur/KO-Sal: pAkt(Thr308): None
  Response to Suramin KO-Sur/KO-Sal: pCAMKII(Thr286): None
  Response to Suramin KO-Sur/KO-Sal: pERK1/2(Thr202/Tyr204): None
  Response to Suramin KO-Sur/KO-Sal: pGSK3β (Ser9): Up
  Response to Suramin KO-Sur/KO-Sal: pPERK(Thr980): None
  Response to Suramin KO-Sur/KO-Sal: pPKC(Ser660): None
  Response to Suramin KO-Sur/KO-Sal: pS6K(Thr389): Up
  Response to Suramin KO-Sur/KO-Sal: pSTAT3(ser727): None
[1]; [3]
  decrease of CB1 receptor expression: 16%
  decrease of P2X3 receptor expression: 18%
  decrease of ionotropic GluR1 expression: 15%
  decrease of synaptosomal APP levels: 23%
  decrease of synaptosomal C1qA: 24%
  decrease of synaptosomal TDP43: 27%
  decrease of total APC expression: 29%
  increase in IP3R1 expression: 101%
  increase of 7-dehydrocholesterol reductase (7DHCR): 24%
  increase of P2Y1 receptor expression: 31%
  increase of inhibitory phosphorylation of S6 kinase (S6K): 47%
  increase of inhibitory phosphorylation of glycogen synthase kinase 3β (GSK3β): 75%
  increase of steroidogenic acute regulatory (StAR) protein: 165%
[1]; [4]
  Response to Suramin KO-Sur/KO-Sal: Nicotinic Acetylcholine Receptor alpha 7/nAchR7: No effect
  Response to Suramin KO-Sur/KO-Sal: P2X7: No effect
  Response to Suramin KO-Sur/KO-Sal: P2Y2: No effect
  Response to Suramin KO-Sur/KO-Sal: pCAMKII(Thr286): No effect
  Response to Suramin KO-Sur/KO-Sal: pERK1/2(Thr202/Tyr204): No effect
[1]; purified brain synaptosomes, suramin vs saline
  increase of PPARβ expression: 34%
[2]
  plasma half-life: 1 week
